Experimental data taken from ChEMBL document CHEMBL3576831, “Discovery of a Selective TRPM8 Antagonist with Clinical Efficacy in Cold-Related Pain” (ACS Med Chem Lett, 2015).

Key:
[1] = Intrinsic clearance in human liver microsomes; assay type: ADME; settings: read-out: CLH
[2] = tested on: Hepatocyte; assay: Intrinsic clearance in human hepatocytes assessed per million cells; assay type: ADME, cell-based
[3] = biological target: Transient receptor potential cation channel subfamily M member 8 (Homo sapiens, UniProt Q7Z2W7); assay: Antagonist activity against human recombinant TRPM8 expressed in CHO T-rex cells assessed as inhibition of WS12-induced calcium response pre-incubated for 20 mins before WS12 addition; assay type: cell-based
[4] = Lipophilicity, log D of the compound; assay type: physicochemical; settings: octanol/water
[5] = tested on: Liver microsome; assay: Intrinsic clearance in rat liver microsomes; assay type: ADME
[6] = biological target: CYP2C9 (Homo sapiens, UniProt P11712); assay: Inhibition of CYP2C9 (unknown origin) at 3 uM; assay type: ADME
[7] = biological target: CYP3A4 (Homo sapiens, UniProt P08684); assay: Inhibition of CYP3A4 (unknown origin) at 3 uM; assay type: ADME
[8] = biological target: T1, CYP1A2 (Homo sapiens, UniProt P05177); assay: Inhibition of CYP1A2 (unknown origin) at 3 uM; assay type: ADME
T1 sequence (P05177 whole entry): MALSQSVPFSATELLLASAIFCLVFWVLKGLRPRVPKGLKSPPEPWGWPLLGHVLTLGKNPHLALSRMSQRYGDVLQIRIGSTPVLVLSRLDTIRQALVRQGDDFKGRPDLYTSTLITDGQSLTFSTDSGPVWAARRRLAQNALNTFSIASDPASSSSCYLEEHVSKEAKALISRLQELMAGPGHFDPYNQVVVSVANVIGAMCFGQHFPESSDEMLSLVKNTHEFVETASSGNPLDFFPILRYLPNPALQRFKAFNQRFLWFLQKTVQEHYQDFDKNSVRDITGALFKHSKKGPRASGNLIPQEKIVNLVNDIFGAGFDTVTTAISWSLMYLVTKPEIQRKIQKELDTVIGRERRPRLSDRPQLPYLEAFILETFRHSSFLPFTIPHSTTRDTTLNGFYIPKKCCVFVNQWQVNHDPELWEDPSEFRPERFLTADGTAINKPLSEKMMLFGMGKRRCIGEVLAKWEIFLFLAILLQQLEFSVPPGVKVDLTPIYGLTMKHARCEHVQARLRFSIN

[9] = biological target: T2, CYP2C8 (Homo sapiens, UniProt P10632); assay: Inhibition of CYP2C8 (unknown origin) at 3 uM; assay type: ADME
T2 sequence (P10632 whole entry): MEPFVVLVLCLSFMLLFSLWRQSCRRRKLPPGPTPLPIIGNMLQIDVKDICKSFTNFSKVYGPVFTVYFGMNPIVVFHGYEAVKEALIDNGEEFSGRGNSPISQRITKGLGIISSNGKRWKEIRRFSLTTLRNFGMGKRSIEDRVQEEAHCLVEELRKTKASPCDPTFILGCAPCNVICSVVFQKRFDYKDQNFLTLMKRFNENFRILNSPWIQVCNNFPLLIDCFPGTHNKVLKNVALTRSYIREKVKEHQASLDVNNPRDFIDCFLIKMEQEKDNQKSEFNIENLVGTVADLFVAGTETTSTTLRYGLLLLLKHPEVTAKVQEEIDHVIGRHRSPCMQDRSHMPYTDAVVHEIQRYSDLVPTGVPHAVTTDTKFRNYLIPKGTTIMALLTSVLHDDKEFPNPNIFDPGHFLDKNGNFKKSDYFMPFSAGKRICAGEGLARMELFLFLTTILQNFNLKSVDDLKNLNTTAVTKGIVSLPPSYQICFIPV

[10] = biological target: CYP2D6 (Homo sapiens, UniProt P10635); assay: Inhibition of CYP2D6 (unknown origin) at 3 uM; assay type: ADME
Chain of CYP2D6 (P10635 whole entry): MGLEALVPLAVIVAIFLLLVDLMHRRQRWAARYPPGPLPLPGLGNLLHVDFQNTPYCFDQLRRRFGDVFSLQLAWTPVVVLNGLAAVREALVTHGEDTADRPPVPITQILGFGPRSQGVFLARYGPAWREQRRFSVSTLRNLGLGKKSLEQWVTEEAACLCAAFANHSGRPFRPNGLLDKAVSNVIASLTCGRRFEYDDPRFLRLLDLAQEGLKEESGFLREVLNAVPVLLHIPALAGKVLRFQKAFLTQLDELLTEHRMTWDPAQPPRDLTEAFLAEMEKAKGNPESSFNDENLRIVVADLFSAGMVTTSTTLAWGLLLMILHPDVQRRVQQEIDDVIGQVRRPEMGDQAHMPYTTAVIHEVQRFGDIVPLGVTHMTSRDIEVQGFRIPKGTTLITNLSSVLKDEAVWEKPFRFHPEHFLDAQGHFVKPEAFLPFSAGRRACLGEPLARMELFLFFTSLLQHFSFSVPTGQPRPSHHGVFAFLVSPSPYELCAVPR

Chain of CYP3A4 (P08684 whole entry): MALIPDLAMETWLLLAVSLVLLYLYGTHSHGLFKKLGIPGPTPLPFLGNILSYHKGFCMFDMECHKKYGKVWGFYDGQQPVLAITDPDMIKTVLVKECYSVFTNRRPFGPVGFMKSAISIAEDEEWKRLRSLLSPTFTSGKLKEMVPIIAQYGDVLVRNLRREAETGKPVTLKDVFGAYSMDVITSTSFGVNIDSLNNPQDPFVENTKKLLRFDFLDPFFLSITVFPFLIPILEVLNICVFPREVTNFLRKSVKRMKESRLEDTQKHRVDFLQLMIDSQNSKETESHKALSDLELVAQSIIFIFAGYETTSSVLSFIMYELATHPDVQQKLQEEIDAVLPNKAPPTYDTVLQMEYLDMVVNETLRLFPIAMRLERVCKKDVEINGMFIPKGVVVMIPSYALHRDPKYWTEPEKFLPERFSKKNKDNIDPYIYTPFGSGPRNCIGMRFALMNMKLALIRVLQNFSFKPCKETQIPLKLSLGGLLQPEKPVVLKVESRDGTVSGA
Chain of Transient receptor potential cation channel subfamily M member 8 (Q7Z2W7 whole entry): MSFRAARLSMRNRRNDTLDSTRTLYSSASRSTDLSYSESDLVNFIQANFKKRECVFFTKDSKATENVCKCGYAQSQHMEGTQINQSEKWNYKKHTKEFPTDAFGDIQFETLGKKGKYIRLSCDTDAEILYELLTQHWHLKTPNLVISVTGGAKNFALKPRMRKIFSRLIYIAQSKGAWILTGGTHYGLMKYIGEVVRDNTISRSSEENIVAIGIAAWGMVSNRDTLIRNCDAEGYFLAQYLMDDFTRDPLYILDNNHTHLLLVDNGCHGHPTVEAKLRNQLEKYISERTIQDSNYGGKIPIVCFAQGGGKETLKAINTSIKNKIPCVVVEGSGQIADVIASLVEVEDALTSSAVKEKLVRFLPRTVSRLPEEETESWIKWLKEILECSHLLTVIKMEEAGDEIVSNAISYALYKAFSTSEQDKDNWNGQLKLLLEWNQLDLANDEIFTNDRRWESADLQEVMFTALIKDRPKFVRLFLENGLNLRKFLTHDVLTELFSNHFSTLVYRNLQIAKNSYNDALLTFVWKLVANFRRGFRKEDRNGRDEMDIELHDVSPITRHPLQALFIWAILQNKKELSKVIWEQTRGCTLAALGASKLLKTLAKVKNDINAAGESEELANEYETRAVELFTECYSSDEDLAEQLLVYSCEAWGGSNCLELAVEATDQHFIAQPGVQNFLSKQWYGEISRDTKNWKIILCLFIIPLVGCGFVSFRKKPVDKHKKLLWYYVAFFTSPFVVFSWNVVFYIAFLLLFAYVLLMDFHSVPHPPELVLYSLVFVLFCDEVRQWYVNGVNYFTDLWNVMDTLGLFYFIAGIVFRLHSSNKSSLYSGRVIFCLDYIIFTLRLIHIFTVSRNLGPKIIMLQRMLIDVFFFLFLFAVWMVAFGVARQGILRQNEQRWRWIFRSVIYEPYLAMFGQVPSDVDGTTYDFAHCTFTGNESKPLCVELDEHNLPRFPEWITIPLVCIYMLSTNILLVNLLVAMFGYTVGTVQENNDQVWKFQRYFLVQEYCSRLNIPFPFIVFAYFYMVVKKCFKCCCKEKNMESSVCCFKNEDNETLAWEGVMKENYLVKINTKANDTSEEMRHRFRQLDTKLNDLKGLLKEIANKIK
Chain of CYP2C9 (P11712 whole entry): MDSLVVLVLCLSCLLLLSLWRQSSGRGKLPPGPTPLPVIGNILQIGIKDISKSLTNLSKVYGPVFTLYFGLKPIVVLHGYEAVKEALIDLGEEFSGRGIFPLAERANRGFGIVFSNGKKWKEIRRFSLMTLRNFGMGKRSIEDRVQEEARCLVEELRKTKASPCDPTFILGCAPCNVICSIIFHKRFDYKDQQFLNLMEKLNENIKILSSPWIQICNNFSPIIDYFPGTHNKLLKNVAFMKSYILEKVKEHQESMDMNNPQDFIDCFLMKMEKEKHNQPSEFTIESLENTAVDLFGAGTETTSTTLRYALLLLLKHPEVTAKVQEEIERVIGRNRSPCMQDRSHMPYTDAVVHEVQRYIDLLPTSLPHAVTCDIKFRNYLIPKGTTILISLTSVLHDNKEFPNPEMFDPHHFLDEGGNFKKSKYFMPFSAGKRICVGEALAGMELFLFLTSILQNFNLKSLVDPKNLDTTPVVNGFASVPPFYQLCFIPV

## C[C@H](c1ccc(F)cc1F)N(Cc1cccc(C(=O)O)c1)C(=O)c1cc2ccccn2n1
[1]
  microsomal CLint: 23 µL/min/mg
[2]
  hepatocyte intrinsic clearance: 31 µL/min/million cells
[3]
  IC50: 234 nM
[4]
  logD: 0.9
[5]
  microsomal CLint: 85 µL/min/mg

## C[C@H](c1ccc(F)cc1)N(Cc1cccc(CC(=O)O)c1)C(=O)c1cnc2ccccc2c1
[3]
  IC50: > 3250 nM

## C[C@H](c1ccc(F)cc1)N(Cc1cc(C(=O)O)ccc1F)C(=O)c1cnc2ccccc2c1
[3]
  IC50: 446 nM

## C[C@H](c1ccc(F)cc1)N(Cc1cccc(C(=O)O)n1)C(=O)c1cnc2ccccc2c1
[3]
  IC50: 1160 nM

## C[C@H](c1cccc(Cl)c1)N(Cc1cccc(C(=O)O)c1)C(=O)c1cnc2ccccc2c1
[1]
  microsomal CLint: 10 µL/min/mg
[6]
  inhibition at 3 µM: 0%
[2]
  hepatocyte intrinsic clearance: 45 µL/min/million cells
[7]
  inhibition at 3 µM: 0%
[8]
  inhibition at 3 µM: 0%
[3]
  IC50: 62 nM
[4]
  logD: 1.5
[5]
  microsomal CLint: 102 µL/min/mg
[9]
  inhibition at 3 µM: 0%
[10]
  inhibition at 3 µM: 0%

## C[C@H](c1ccc(F)cc1F)N(Cc1cccc(C(=O)O)c1)C(=O)c1cnc2ccccc2c1
[3]
  IC50: 288 nM

## O=C(O)c1cccc(CN(Cc2ccc(F)cc2)C(=O)c2cnc3ccccc3c2)c1
[3]
  IC50: > 9360 nM

## C[C@H](c1ccc(F)cc1F)N(Cc1cccc(C(=O)O)c1)C(=O)c1cc2ccccc2cn1
[1]
  microsomal CLint: 11 µL/min/mg
[6]
  inhibition at 3 µM: 0%
[2]
  hepatocyte intrinsic clearance: < 2 µL/min/million cells
[7]
  inhibition at 3 µM: 0%
[8]
  inhibition at 3 µM: 0%
[3]
  IC50: 60 nM
[4]
  logD: 1.1
[5]
  microsomal CLint: 31 µL/min/mg
[9]
  inhibition at 3 µM: 0%
[10]
  inhibition at 3 µM: 0%

## C[C@H](c1ccc(F)cc1)N(Cc1cccc(C(=O)O)c1)C(=O)c1cc2cc[nH]c2cn1
[3]
  IC50: 951 nM

## C[C@H](c1ccc(F)cc1)N(Cc1cccc(C(=O)O)c1)C(=O)c1cc2ccccc2s1
[3]
  IC50: 145 nM

## CC(c1ccc(F)cc1)N(Cc1cccc(C(=O)O)c1)C(=O)c1ccc2c(c1)CCO2 (racemic)
[3]
  IC50: 3620 nM

## COc1ccc(C(C)N(Cc2cccc(C(=O)O)c2)C(=O)c2cnc3ccccc3c2)cc1 (stereo unspecified)
[3]
  IC50: 6100 nM

## CC(c1ccc(F)cc1)N(Cc1cccc(C(=O)O)c1)C(=O)C1Cc2ccccc2C1 (racemic)
[3]
  IC50: > 5000 nM

## Cc1ccc(CN(C(=O)c2cnc3ccccc3c2)[C@H](C)c2ccc(F)cc2)cc1C(=O)O
[3]
  IC50: > 7820 nM

## C[C@H](c1ccc(F)cc1F)N(Cc1cccc(C(=O)O)n1)C(=O)c1cc2ccccc2cn1
[1]
  microsomal CLint: 11 µL/min/mg
[6]
  inhibition at 3 µM: 0%
[2]
  hepatocyte intrinsic clearance: < 2.2 µL/min/million cells
[7]
  inhibition at 3 µM: 0%
[8]
  inhibition at 3 µM: 0%
[3]
  IC50: 190 nM
[4]
  logD: 0.4
[5]
  microsomal CLint: 31 µL/min/mg
[9]
  inhibition at 3 µM: 0%
[10]
  inhibition at 3 µM: 0%
